The values below come from patent publication US20190308988A1, “OPIOID RECEPTOR ANTAGONIST PRODRUGS” (Nirsum Laboratories, Inc., priority 2017, published 2019).

The nature of data set [1]: Liver S9 fraction stability, monkey. Conditions: monkey liver S9 1.0 mg/ml, 2 μM, 37° C. Type of data set: in vitro ADME, cynomolgus monkey. Here is the method:
(§1) Liver S9 fraction stability determination of the test compounds in dog, cynomolgus monkey and human is performed using HPLC-MS. Test compound (2 μM, 0.1% DMSO, 1% Methanol final concentration) was assessed for stability in a 50 μl phosphate buffer containing 1.0 mg/ml S9 protein from each of the three species and 5 mM D-saccharic acid-1, 4-lactone. Samples were incubated at 37° C. for 60 minutes and the % compound remaining was assessed.

Data set [2] in a line: Solubility determination in oil (Table 10). As to conditions: thermodynamic from solid; for solubility at 24 h: 25 °C, Heating Temp. 60 °C, Obs. Temp. 25 °C; for solubility / solubility thermodynamic: 40 °C, Heating Temp. 40 °C, Obs. Temp. 40 °C; for solubility thermodynamic: water, Equilibrium solubility: Water. Here is the method:
A known amount of test substance (˜40 mg) was weighed into the vial, 100 μL of oil was added and heated to 60° C. and then system was slurried to reach equilibrium. […] Extra oil was added into the vial once compound precipitated out and then the system was re-equilibrated at 1000 rpm at room temperature (25° C.). Final concentration was determined by HPLC method as described below in Table 6a and 6b.

Data set [3] is described as follows: Dog pharmacokinetic studies, deep intramuscular administration. The data set is classed as in vivo, Beagle dogs. As to conditions: Beagle, dog, plasma, im; for AUC(0-inf): read-out: AUC0-inf (ng · h/mL) prodrug; for half-life: read-out: Half-life t1/2 (hour) prodrug (converted). Put shortly:
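Beagle dogs (n=3) dosed by deep intramuscular injection into quadriceps or biceps femoris, formulation 400 mg base equivalents/mL in sesame oil + 1% benzyl alcohol, under propofol sedation. Plasma quantified by LC-MS/MS; non-compartmental analysis for Cmax, Tmax, T1/2, AUC and MRT.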

The next data set concerns the target T1, KOR (Homo sapiens, UniProt P41145).
T1 construct: expressed in transfected cells
The experiment in a line: Opioid receptor binding assay, KOR ([3H]Diprenorphine). Here is the method: (§2) Receptor binding assays were performed to assess the ability of compounds to inhibit binding to radiolabeled ligand.
(§3) The stable cell lines were established and prepared cell membrane obtained using these cell lines.
(§4) 1) Transfer 1 μl of specified concentration compound to assay plate according to the plate map for nonspecific binding. Transfer 1 μl of DMSO to assay plate according to plate map for total binding. 2) Follow the plate map. Dispense 99 μl of membrane stocks into the plate. 3) Add 100 μl of radio ligand. 4) Seal the plates. Incubate at RT for 1 hour. 5) Soak the Unifilter-96 GF/C filter plates with 50 μl of 0.3% PEI per well for at least 0.5 hour at room temperature. 6) When binding assays are completed, filter the reaction mixture through GF/C plates using Perkin Elmer Filtermate Harvester, and then wash each plate for 4 times with cold wash buffer. 7) Dry the filter plates for 1 hour at 50 degrees. 8) After drying, seal the bottom of the filter plate wells using Perkin Elmer Unifilter-96 backing seal tape. Add 50 μl of Perkin Elmer Microscint 20 cocktail. Seal top of filter plates with Perkin Elmer TopSeal-A sealing film. 9) Count ^3H trapped on filter using Perkin Elmer MicroBeta2 Reader second day. 10) Analyze the data with GraphPad Prism 5. Calculate the “Inhibition [% Control]” using the equation: % Inh=(1−Background subtracted Assay value/Background subtracted HC value)*100.

The target in another data set is T2, MOR (Homo sapiens, UniProt P35372).
T2 construct: expressed in transfected cells
The data set can be described thus: Opioid receptor binding assay, MOR ([3H]DAMGO). Here is the method: as §2, §3, §4

Another data set has as its target T3, DOR (Homo sapiens, UniProt P41143).
T3 construct: expressed in transfected cells
The experiment in a line: Opioid receptor binding assay, DOR ([3H]-DADLE). Here is the method:
as §2, §3, §4

Data set [4] can be described thus: Rat pharmacokinetic studies, intramuscular administration. The data set is classed as in vivo, male Sprague Dawley Rats. Conditions: male, Sprague Dawley, rat, plasma, im; for AUC(0-inf): read-out: AUC0-inf (ng · h/mL) prodrug; for half-life: read-out: Half-life t1/2 (hour) prodrug (converted). The procedure: The purpose of this study is to determine the pharmacokinetics of test compounds in plasma, following intramuscular administration to male Sprague Dawley Rats (n=3, unless otherwise specified).
The dose formulation of 400 mg base equivalents/ml in sesame oil+1% benzyl alcohol (unless otherwise specified) was administered by intramuscular injection. The dose volume was determined by the animals' body weight determined on the morning of dosing day.
Each collected blood sample was centrifuged for 4 minutes at 4° C. and 10000 rpm for plasma collection. Plasma was collected and transferred into a pre-labeled PP tube in dry ice at each time point and precipitated immediately using ACN at a ratio of 1:4 (plasma:ACN). Centrifuged again (10 minutes, 12000 rpm) and obtain the supernatant.
LC-MS/MS methods for the quantitative determination of test compound in biological matrix were developed. […] The sample analysis was performed concurrently with a set of calibration standards and two sets of QC samples using the LC-MS/MS method.
Plasma concentration versus time data was analyzed by non-compartmental approaches using the Phoenix WinNonlin 6.3 software program. Cmax, Tmax, T1/2, AUC(0-t), AUC(0-inf), MRT(0-t), MRT(0-inf) and graphs of plasma concentration versus time profile were prepared.

Data set [5] is described as follows: Liver S9 fraction stability, human. Conditions: human liver S9 1.0 mg/ml, 2 μM, 37° C. Type of data set: in vitro ADME. Here is the method: as §1
Data set [6] in a line: Liver S9 fraction stability, dog. Type of data set: in vitro ADME. As to conditions: dog liver S9 1.0 mg/ml, 2 μM, 37° C. The procedure: as §1
A short description of data set [7]: Dog body weights and clinical observation (Tables 66-86). The data set is classed as in vivo, Beagle dogs. Conditions: 48 mg/kg Shallow IM, dog D1002, 1128 hr. The procedure:
Weight monitoring was done every week.
The dose formulation (concentration—400 mg base equivalents/ml in sesame oil+1% benzyl alcohol, unless otherwise specified) was administered via deep intramuscularly (unless otherwise specified). The injection vehicle was also dosed via deep intramuscular route (unless otherwise specified) on contralateral site of each animal at study initiation. The animals were sedated with Propofol at 6 mg/kg via IV administration. Following sedation hair was carefully removed from around the injection site and the area gently cleaned. Care will be taken to avoid irritating skin during shaving and cleaning the injection site. Then dogs will be dosed with deep IM administration. At least 2.5 cm depth from the surface into the central aspect of the quadriceps or biceps femoris muscle, by angling the needle toward the femur. If the needle hits the femur, simply draws back slightly and then inject. The dose volume will be determined by the animals' body weight collected on the morning of dosing day. For repeated administration, the injection sites may be rotated to minimize tissue injury.

The mark [8] stands for this setting: oil or lipid, Approximate Solubility in Excipient: Cottonseed oil.
[9] abbreviates: oil or lipid, Approximate Solubility in Excipient: Sesame oil.
Where [10] appears, read: 30 mg/kg, IM 30 mg/kg, Sesame oil + 1% Benzyl Alcohol.
Where [11] appears, read: 48 mg/kg, IM 48 mg/kg (deep), Sesame oil + 1% Benzyl Alcohol.
The mark [12] stands for this setting: 48 mg/kg, IM 48 mg/kg (shallow), Sesame oil + 1% Benzyl Alcohol.
The mark [13] stands for this setting: 96 mg/kg, IM 96 mg/kg, Sesame oil + 1% Benzyl Alcohol.
Where [14] appears, read: 80 mg/kg, Sesame oil + 1% Benzyl Alcohol.
Where [15] appears, read: 123 mg/kg, Sesame oil + 1% Benzyl Alcohol.
The mark [16] stands for this setting: 165 mg/kg, Sesame oil + 1% Benzyl Alcohol.
[17] abbreviates: 48 mg/kg, IM 48 mg/kg (deep), Cottonseed + 1% Benzyl Alcohol.
The mark [18] stands for this setting: 48 mg/kg, IM 48 mg/kg (shallow), Cottonseed + 1% Benzyl Alcohol.
The mark [19] stands for this setting: 80 mg/kg, Cottonseed + 1% Benzyl Alcohol.
Setting [20] is: 123 mg/kg, Cottonseed oil + 1% Benzyl Alcohol.
The mark [21] stands for this setting: 165 mg/kg, Cottonseed oil + 1% Benzyl Alcohol.

Each structure is given as a SMILES string. ≈ marks a conversion by molar mass, not a printed value.

T2 sequence (P35372 whole entry): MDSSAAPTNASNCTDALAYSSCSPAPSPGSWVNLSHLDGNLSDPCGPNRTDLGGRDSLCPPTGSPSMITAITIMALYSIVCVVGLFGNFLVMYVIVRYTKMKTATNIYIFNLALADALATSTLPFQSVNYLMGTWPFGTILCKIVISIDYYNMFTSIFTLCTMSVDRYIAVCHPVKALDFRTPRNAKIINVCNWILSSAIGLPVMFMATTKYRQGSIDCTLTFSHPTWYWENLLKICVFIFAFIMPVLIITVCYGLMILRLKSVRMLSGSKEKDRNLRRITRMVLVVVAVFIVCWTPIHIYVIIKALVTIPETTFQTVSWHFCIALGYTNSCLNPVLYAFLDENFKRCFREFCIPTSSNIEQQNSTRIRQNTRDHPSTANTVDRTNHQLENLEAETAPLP
T1 sequence (P41145 whole entry): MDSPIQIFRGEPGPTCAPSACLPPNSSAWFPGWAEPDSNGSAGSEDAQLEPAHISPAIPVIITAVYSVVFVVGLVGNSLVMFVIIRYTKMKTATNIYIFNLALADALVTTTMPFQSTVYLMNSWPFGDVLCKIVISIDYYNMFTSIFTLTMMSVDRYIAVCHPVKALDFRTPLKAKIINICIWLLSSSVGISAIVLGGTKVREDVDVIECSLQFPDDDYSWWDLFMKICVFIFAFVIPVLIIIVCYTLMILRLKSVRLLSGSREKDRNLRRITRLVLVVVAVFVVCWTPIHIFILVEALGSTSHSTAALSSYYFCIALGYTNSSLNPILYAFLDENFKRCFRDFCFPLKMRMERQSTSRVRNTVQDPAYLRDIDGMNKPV
T3 sequence (P41143 whole entry): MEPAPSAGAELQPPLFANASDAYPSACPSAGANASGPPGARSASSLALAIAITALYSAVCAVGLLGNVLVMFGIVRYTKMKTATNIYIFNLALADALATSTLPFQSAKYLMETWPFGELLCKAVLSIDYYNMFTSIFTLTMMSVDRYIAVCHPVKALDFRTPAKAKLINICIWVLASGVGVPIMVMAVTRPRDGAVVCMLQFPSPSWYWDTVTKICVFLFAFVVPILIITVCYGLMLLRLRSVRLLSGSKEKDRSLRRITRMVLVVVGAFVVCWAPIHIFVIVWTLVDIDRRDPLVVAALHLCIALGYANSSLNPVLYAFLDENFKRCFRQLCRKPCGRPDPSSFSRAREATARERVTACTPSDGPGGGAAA

`C=C1CC[C@@]2(O)C3Cc4ccc(OC(=O)OCCCCCCCCCCCC)c5c4[C@@]2(CCN3CC2CC2)[C@H]1O5` [Compound 6, (4aS,7aS,12bS)-3-(cyclopropylmethyl)-4a-hydroxy-7-methylene-2,3,4,4a,5,6,7,7a-octahydro-1H-4,12-methanobenzofuro[3,2-e]isoquinolin-9-yl dodecyl carbonate]: in data set [1], the “% remaining at 60 minutes, Monkey” value amounted to 0%. Besides, the solubility at 24 h in data set [2] (setting [8]) is more than 397 mg/mL; in data set [2] (setting [9]), more than 386 mg/mL. Besides, the solubility in [2] (setting [8]) is more than 421 mg/mL; in [2] (setting [9]) it was more than 403 mg/mL; in data set [2] (organic solvent or mixture, Approximate Solubility in Excipient: Ethanol) it was 120 to 170 mg/mL (≈ 217 to 308 mM). The solubility (thermodynamic) in [2] is 0.002 mg/mL (≈ 0.00362 mM). In addition, the AUC(0-inf) in data set [3] (setting [10]) stood at 398 ng·h/mL; in data set [3] (setting [11]), 2190 ng·h/mL; in data set [3] (setting [12]), 1020 ng·h/mL; in data set [3] (setting [13]), 1290 ng·h/mL; in [4] (setting [14]), 78.9 ng·h/mL; in data set [4] (setting [15]), 620 ng·h/mL. Besides, the AUC(0-inf) in [4] (setting [16]) is 637 ng·h/mL. The half-life is 95 h in [3] (setting [10]); 54 h in [3] (setting [11]); 135 h in data set [3] (setting [12]); 88 h in data set [3] (setting [13]); 340 h in data set [4] (setting [14]); 213 h in data set [4] (setting [15]). In addition, the half-life in [4] (setting [16]) was 204 h. Further, the figures for the IC50 at KOR, on MOR and at DOR were 51.1 nM, 14.9 nM and 500 nM, respectively. Besides, in data set [5], the “% remaining at 60 minutes, Human” value came to 5.3%. The “% remaining at 60 minutes, Dog” value in data set [6] worked out at 17.1%.

With `C=C1CC[C@@]2(O)C3Cc4ccc(OCOC(=O)OCCCCCCCCCCCC)c5c4[C@@]2(CCN3CC2CC2)[C@H]1O5` [Compound 24, (((4aS,7aS,12bS)-3-(cyclopropylmethyl)-4a-hydroxy-7-methylene-2,3,4,4a,5,6,7,7a-octahydro-1H-4,12-methanobenzofuro[3,2-e]isoquinolin-9-yl)oxy)methyl dodecyl carbonate], the “% remaining at 60 minutes, Monkey” value in data set [1] is given as 3%. Also, the solubility at 24 h in data set [2] (setting [8]) was more than 403 mg/mL; in [2] (setting [9]), 338 to 368 mg/mL (≈ 581 to 633 mM). Also, the solubility (thermodynamic) in data set [2] was less than 0.001 mg/mL. Moreover, the AUC(0-inf) worked out at 613 ng·h/mL in data set [3] (setting [17]); 526 ng·h/mL in data set [3] (setting [18]); 147 ng·h/mL in [4] (setting [19]); 547 ng·h/mL in data set [4] (setting [20]); 453 ng·h/mL in data set [4] (setting [21]). In addition, the half-life in data set [3] (setting [17]) was 59.6 h; in data set [3] (setting [18]), 102 h; in data set [4] (setting [19]), 398 h; in data set [4] (setting [20]), 717 h; in data set [4] (setting [21]) it was 851 h. Also, the IC50 at KOR was determined as 37.5 nM; at MOR it was 22.4 nM; on DOR, 2120 nM. The BT entry in [7] was “BT: 38.8 °C”. Also, the “% remaining at 60 minutes, Human” value in data set [5] is 3.5%. In addition, the “% remaining at 60 minutes, Dog” value in data set [6] came out at 3.6%.

A word on the solubility: it is the dissolved amount per volume that the medium holds. As usually defined, the solubility (thermodynamic) is solubility found after equilibrating the solid with the medium. In general, IC50 refers to the point on the concentration scale where inhibition reaches its midpoint.
